Biological target: T1, SiaR (Haemophilus influenzae, UniProt P44540)
T1 construct: gene HI_0143; C-terminal His-tag, plasmid pJJ185 (earlier work), expressed in E. coli, tag not reported cut
Test: EMSA with nan-siaPT intergenic DNA probe
Format: binding
Settings: 100 μM GlcN-6P; co-activator; serial dilutions of SiaR; 15 nM DNA probe; pH 7.4, room temperature

T1 sequence (P44540 whole entry): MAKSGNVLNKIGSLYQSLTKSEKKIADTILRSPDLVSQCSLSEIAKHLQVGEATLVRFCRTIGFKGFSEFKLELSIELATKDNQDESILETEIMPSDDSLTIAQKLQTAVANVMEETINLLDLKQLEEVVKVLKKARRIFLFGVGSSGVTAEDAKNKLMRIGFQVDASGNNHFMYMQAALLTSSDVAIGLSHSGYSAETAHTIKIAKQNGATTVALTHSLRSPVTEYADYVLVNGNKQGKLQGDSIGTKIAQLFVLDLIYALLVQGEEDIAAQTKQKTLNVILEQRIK

N[C@H]1C(O)O[C@H](COP(=O)(O)O)[C@@H](O)[C@@H]1O (stereo partly shown) [GlcN-6P]
EMSA with nan-siaPT intergenic DNA probe: SiaR bound the probe and GlcN-6P slightly increased the binding affinity

Source: paper PMC2946308, “Sialic acid transport and catabolism are cooperatively regulated by SiaR and CRP in nontypeable Haemophilus influenzae” (BMC Microbiology, 2010)
